# System: B. theta and C. asparagiforme
# Assay: Untargeted metabolomics of in vitro cultures
# Format: cell-based, Bacteroides thetaiotaomicron; Clostridium asparagiforme
# Experimental: As described in the in vitro bacterial growth studies, 48-hour overnight cultures were grown in an anaerobic chamber in liquid BHI+for the following isolates: Bacteroidetes thetaiotaomicron and Clostridium asparagiforme. Each subculture was diluted down to an OD600 of 0.08-0.1, which was then further diluted 100-fold, and then used to inoculate a 96-well 2-ml deep well plate with 100 μg/ml MTX (n=6 replicates per isolate) (Sigma, Cat #M9929) or DMSO (n=2 replicates per isolate). After 24 hours, aliquots were removed, centrifuged on a tabletop centrifuge at 4° C. for 5 minutes at ˜2000 rcf, and supernatant was prepared for extraction and untargeted LC-MS as described.
# Extraction was done in 96 well plates. In brief, 60 μL of the supernatant from the 96 well culture plate was added to 120 μL of pre-cooled methanol/acetonitrile (1:1, v/v) in a non-sterile 96 well plate. The samples were then incubated at −20° C. for 1 hour. After incubation, samples were mixed at 4° C. at 650 rpm using small block tube shaker. The plates were then centrifuged at 3000 rpm for 10 minutes. After centrifugation, using multi-channel pipette, 80 μL of supernatant from each well was transferred to non-sterile 96 well polypropylene plate and then sealed with pre-slit silicone mat. A 1:1:1 mix of LC-MS grade H2O, LC-MS grade acetonitrile and LC-MS grade methanol was used as blank.
# Samples (5 μl) were separated by hydrophilic interaction chromatography HPLC using a Vanquish UHPLC system (Thermo Fisher Scientific, Waltham, MA) with a Waters (Milford, MA) Acquity UPLC BEH Amide Column (2.1×100 mm×1.7 μm particle size) maintained at 65° C. and a 17 minute gradient, at a flow rate of 400 μl/min. […]
# The raw data were converted into mzML format using ProteoWizard v3.0. Converted HILIC files were then analyzed using MS-DIAL v4.16 for deconvolution, peak detection, alignment, and identification (Parameters file can be provided upon request). […]
# [1] = MTX 100 μg/ml, 24 hours, padj<0.01, two-factor ANOVA with BH correction
smiles,measurement,setting,value
"CN(Cc1cnc2nc(N)nc(N)c2n1)c1ccc(C(=O)N[C@@H](CCC(=O)O)C(=O)O)cc1 [MTX, methotrexate]","levels of AMP, adenine, hypoxanthine and guanine relative to vehicle control","C. asparagiforme, 24 hours of treatment, AMP decreased, the rest increased, Wilcoxon rank sum",these differences were not statistically significant
same,number of metabolic features that changed similarly in the two isolates,[1],418
same,number of metabolic features that differed by species,[1],220
